Test results reported in ChEMBL document CHEMBL1201862, “PubChem BioAssay data set” (2004).
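Briefly, cells in 96-well plates were exposed to five compound concentrations for 48 h, and endpoints were estimated by linear interpolation. GI50: concentration for 50% inhibition of growth.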 Calls of active or inactive are those of the source. Cut-off read from the data, not from the text of the source: active = GI50 up to about 1.1 µM and inactive = higher.

Legend:
Experiment in all cases: growth of human tumour cells (NCI), 48 h
[1] = tested on: SF-539
[2] = tested on: SNB-19
[3] = tested on: MDA-MB-435
[4] = tested on: MOLT-4
[5] = tested on: LOX IMVI
[6] = tested on: MDA-MB-231
[7] = tested on: 786-0
[8] = tested on: NCI/ADR-RES
[9] = tested on: A498
[10] = tested on: Hs-578T
[11] = tested on: OVCAR-3
[12] = tested on: HT-29
[13] = tested on: SW-620
[14] = tested on: NCI-H226
[15] = tested on: HCT-116
[16] = tested on: UACC-257
[17] = tested on: COLO 205
[18] = tested on: SF-268
[19] = tested on: HCC 2998

SMILES	GI50 [1]	GI50 [2]	GI50 [3]	GI50 [4]	GI50 [5]	GI50 [6]	GI50 [7]	GI50 [8]	GI50 [9]	GI50 [10]	GI50 [11]	GI50 [12]	GI50 [13]	GI50 [14]	GI50 [15]	GI50 [16]	GI50 [17]	GI50 [18]	GI50 [19]
O=C(OCc1ccccc1)N1CCNCCN(C(=O)OCc2ccccc2)CCNCC1	14.6 µM (inactive)	47.5 µM (inactive)	24 µM (inactive)	18 µM (inactive)	13.2 µM (inactive)	1.82 µM (inactive)	18.3 µM (inactive)	75.7 µM (inactive)	27.5 µM (inactive)	21.2 µM (inactive)	35.4 µM (inactive)	17.7 µM (inactive)	32.1 µM (inactive)	36.9 µM (inactive)	16.2 µM (inactive)	21.4 µM (inactive)			
Cc1cc(=O)n2nc(CSc3nnc(N)s3)sc2n1	> 100 µM (inactive)	> 100 µM (inactive)	> 100 µM (inactive)	> 100 µM (inactive)	> 100 µM (inactive)	> 100 µM (inactive)	> 100 µM (inactive)	> 100 µM (inactive)		> 100 µM (inactive)	> 100 µM (inactive)	> 100 µM (inactive)	> 100 µM (inactive)	> 100 µM (inactive)	> 100 µM (inactive)	> 100 µM (inactive)	> 100 µM (inactive)	> 100 µM (inactive)	> 100 µM (inactive)
COC(=O)C(Cc1ccccc1)NC(=O)C(CCCNC(=N)N)NC(=O)OCc1ccccc1 (configuration not stated)		> 100 µM (inactive)	> 100 µM (inactive)	> 100 µM (inactive)	> 100 µM (inactive)	> 100 µM (inactive)	> 100 µM (inactive)	> 100 µM (inactive)		> 100 µM (inactive)	> 100 µM (inactive)	> 100 µM (inactive)	> 100 µM (inactive)	> 100 µM (inactive)	> 100 µM (inactive)		> 100 µM (inactive)	> 100 µM (inactive)	> 100 µM (inactive)
CN1C2CC(=O)CC1[C@@H]1OC(c3ccccc3)O[C@H]21 (some centres not stated)	> 100 µM (inactive)	> 100 µM (inactive)	> 100 µM (inactive)	> 100 µM (inactive)	> 100 µM (inactive)	> 100 µM (inactive)	> 100 µM (inactive)	> 100 µM (inactive)		> 100 µM (inactive)	> 100 µM (inactive)	> 100 µM (inactive)	> 100 µM (inactive)	> 100 µM (inactive)	> 100 µM (inactive)	> 100 µM (inactive)	> 100 µM (inactive)	> 100 µM (inactive)	> 100 µM (inactive)
CC(=O)OCC1OC(SC2=N/C(=C\c3ccc(Br)s3)C(=O)N2CN2CCOCC2)C(OC(C)=O)C(OC(C)=O)C1OC(C)=O (configuration not stated)		19.9 µM (inactive)	23.8 µM (inactive)	20 µM (inactive)	12.9 µM (inactive)	26.7 µM (inactive)	16.7 µM (inactive)	20.4 µM (inactive)	20.5 µM (inactive)	19.5 µM (inactive)	> 10 µM (inactive)	15.5 µM (inactive)	14.9 µM (inactive)	11.3 µM (inactive)	13.9 µM (inactive)	16.6 µM (inactive)	18.8 µM (inactive)	32.8 µM (inactive)	19.8 µM (inactive)
COc1ccc(-n2c(=O)n(C)c(=O)n2-c2ccc(OC)cc2)cc1	> 100 µM (inactive)	> 100 µM (inactive)	> 100 µM (inactive)	> 100 µM (inactive)	59.2 µM (inactive)	> 100 µM (inactive)	> 100 µM (inactive)	> 100 µM (inactive)	> 100 µM (inactive)	9.48 µM (inactive)	> 100 µM (inactive)	> 100 µM (inactive)	> 100 µM (inactive)	> 100 µM (inactive)	98.6 µM (inactive)	> 100 µM (inactive)	> 100 µM (inactive)	> 100 µM (inactive)	
COc1ccc(/N=N/C(=N\c2ccccc2)c2ccc(N(CCC#N)CCC#N)cc2)cc1	28 µM (inactive)	> 100 µM (inactive)	56.4 µM (inactive)	28.8 µM (inactive)		22.9 µM (inactive)	60.4 µM (inactive)	95.3 µM (inactive)	67.6 µM (inactive)	45.8 µM (inactive)	18 µM (inactive)	47.9 µM (inactive)	> 100 µM (inactive)	> 100 µM (inactive)	43.4 µM (inactive)	23.8 µM (inactive)	14.1 µM (inactive)	97.7 µM (inactive)	33.2 µM (inactive)
CN(C)CCCn1cnc2cc(Cl)c(Cl)cc21		> 100 µM (inactive)	55.8 µM (inactive)		59.2 µM (inactive)	> 100 µM (inactive)	59.6 µM (inactive)	> 100 µM (inactive)	> 100 µM (inactive)	> 100 µM (inactive)	> 100 µM (inactive)	72.3 µM (inactive)	> 100 µM (inactive)	> 100 µM (inactive)	48 µM (inactive)	19.8 µM (inactive)	79.3 µM (inactive)	> 100 µM (inactive)	22 µM (inactive)
O=c1[nH]c2nc[nH]c2c(=O)n1C1CCCCC1	> 100 µM (inactive)	> 100 µM (inactive)	> 100 µM (inactive)	> 100 µM (inactive)		> 100 µM (inactive)	> 100 µM (inactive)	> 100 µM (inactive)	> 100 µM (inactive)	> 100 µM (inactive)	> 100 µM (inactive)	> 100 µM (inactive)	> 100 µM (inactive)	> 100 µM (inactive)	> 100 µM (inactive)	> 100 µM (inactive)	> 100 µM (inactive)	> 100 µM (inactive)	> 100 µM (inactive)
COc1ccc(NC(/C(C(=O)c2ccccc2)=C(\O)C(=O)/C=C(\O)c2ccccc2)c2ccc(OC)cc2)cc1 (configuration not stated)	38.8 µM (inactive)	65.8 µM (inactive)	20.6 µM (inactive)	42.8 µM (inactive)		> 100 µM (inactive)	31 µM (inactive)	40.3 µM (inactive)	35.7 µM (inactive)	36 µM (inactive)	21.6 µM (inactive)	45.8 µM (inactive)		> 100 µM (inactive)	35.8 µM (inactive)	40.7 µM (inactive)	31 µM (inactive)	43.1 µM (inactive)	26.6 µM (inactive)
CC(=O)O[C@H]1CC[C@@]2(C)C(=CC[C@@H]3[C@@H]2CC[C@]2(C)c4c(C)nn(-c5ccccc5)c4C[C@@H]32)C1		31 µM (inactive)	45.7 µM (inactive)	13.2 µM (inactive)	12.3 µM (inactive)	25.1 µM (inactive)	13.6 µM (inactive)	34.9 µM (inactive)	24 µM (inactive)	11.2 µM (inactive)	28.7 µM (inactive)	11.5 µM (inactive)	33.5 µM (inactive)	36.6 µM (inactive)	31 µM (inactive)	29.9 µM (inactive)	15.5 µM (inactive)	62.8 µM (inactive)	16.4 µM (inactive)
Nc1cc2ncnc(Nc3cccc(Br)c3)c2cn1	21.9 µM (inactive)	67.5 µM (inactive)	54.3 µM (inactive)	> 100 µM (inactive)	38 µM (inactive)	45.2 µM (inactive)	19.5 µM (inactive)	45.6 µM (inactive)	3.61 µM (inactive)	33.7 µM (inactive)	15.8 µM (inactive)	31.4 µM (inactive)	> 100 µM (inactive)	23.8 µM (inactive)	49.5 µM (inactive)	39.9 µM (inactive)	50.4 µM (inactive)	58.2 µM (inactive)	
CCOC(=O)c1c(NC(=O)c2ccc(OC)cc2)sc2c1CCCC2	> 100 µM (inactive)	> 100 µM (inactive)	> 100 µM (inactive)	> 100 µM (inactive)		> 100 µM (inactive)	> 100 µM (inactive)	> 100 µM (inactive)	> 100 µM (inactive)	> 100 µM (inactive)	> 100 µM (inactive)	> 100 µM (inactive)	> 100 µM (inactive)	> 100 µM (inactive)	> 100 µM (inactive)	> 100 µM (inactive)	> 100 µM (inactive)	> 100 µM (inactive)	
COc1ccc([C@H](NC(=O)c2ccccc2)[C@@H](O)C(=O)O[C@H]2C[C@@]3(O)C(OC(=O)c4ccccc4)C4[C@](C)(C(=O)[C@H](OC(C)=O)C(=C2C)C3(C)C)[C@@H](O)C[C@H]2OC[C@@]42OC(C)=O)cc1 (some centres not stated)	0.00112 µM (active)	0.0368 µM (active)	< 0.001 µM (active)	0.00286 µM (active)	0.0012 µM (active)	> 10 µM (inactive)	0.0389 µM (active)	> 6.43 µM (inactive)		< 0.001 µM (active)		< 0.001 µM (active)	0.00508 µM (active)	0.00673 µM (active)	< 0.001 µM (active)	0.00542 µM (active)	0.00274 µM (active)	0.00415 µM (active)	0.00301 µM (active)
Cn1cnc2c(OCC3CCCCC3)nc(N)nc21	> 100 µM (inactive)	> 100 µM (inactive)	> 100 µM (inactive)	> 100 µM (inactive)	66.1 µM (inactive)	> 100 µM (inactive)	> 100 µM (inactive)	> 100 µM (inactive)		> 100 µM (inactive)	> 100 µM (inactive)	73.8 µM (inactive)	> 100 µM (inactive)	44.1 µM (inactive)	> 100 µM (inactive)	> 100 µM (inactive)	> 100 µM (inactive)	> 100 µM (inactive)	> 100 µM (inactive)
